Data on 13 compounds can be found in PubChem BioAssay (NCI).

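Protocol summary: plate cells (96-well), add compound at 5 concentrations, incubate 48 h, interpolate endpoints linearly. TGI denotes the concentration required for complete inhibition of growth.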 Where only a bound is given, the exact number is not on record here.

What all share (assay): NCI-60 cell line screen, 48 h
The subject of experiment [1] is 786-0 renal.
Experiment [2] has as its system IGROV1 ovarian.
The subject of experiment [3] is MCF7 breast.
For experiment [4], the system named is MDA-N.
Experiment [5] relates to NCI-H226 lung.
Experiment [6] has as its system SK-MEL-2 melanoma.
Experiment [7] concerns SR leukemia.
For experiment [8], the system named is UACC-62 melanoma.
The subject of experiment [9] is UO-31 renal.
Experiment [10] relates to HCT-15 colon.
In experiment [11] the test system is SNB-75 CNS.
The subject of experiment [12] is T-47D breast.

Take `Cc1nc(OCc2ccccc2)c2ncn(CCO)c2n1`: the TGI in [1], in experiment [2], in experiment [3], in [4], in experiment [5] and in experiment [6] was greater than 100 µM in each case. For the same compound, the TGI in [7], in [8] and in experiment [9] was greater than 100 µM in each case.

Take `Cc1nc2c(c(N3CCN(C)CC3)n1)Cc1ccccc1-2`: the TGI in [1], in experiment [10], in experiment [3], in [4], in [5] and in experiment [6] was greater than 100 µM in each case. Moreover, the TGI was greater than 100 µM in experiment [11], greater than 100 µM in experiment [12], greater than 100 µM in [8] and 62.8 µM in [9].

Turning to `CCOC(=O)C12CCC(=O)N1N(C)c1ncccc1N2` (stereo unspecified), the TGI in [1], in experiment [10], in [2], in experiment [3], in experiment [4] and in [5] was greater than 100 µM in each case. In addition, the TGI in experiment [11], in [7], in experiment [12], in experiment [8] and in [9] was greater than 100 µM throughout.

Regarding `COC(=O)CCc1ccc(CCC(=O)OC)cc1`, the TGI in [1], in experiment [10], in experiment [2], in experiment [3], in experiment [4] and in experiment [6] was greater than 100 µM in each case. The TGI in experiment [11], in experiment [7], in experiment [12] and in experiment [9] was greater than 100 µM in each case.

In the case of `COC(NC(=O)Nc1ccc(C)cc1)(C(F)(F)F)C(F)(F)F`, the TGI is greater than 100 µM in experiment [1]; greater than 100 µM in experiment [2]; greater than 100 µM in experiment [3]; 94.6 µM in experiment [4]; greater than 100 µM in experiment [5]; greater than 100 µM in [11]. In addition, the TGI in experiment [7] is greater than 100 µM; in [12] it was 97.7 µM; in experiment [8], greater than 100 µM; in experiment [9], 53.6 µM.

As to `O=P1(c2ccccc2)C(c2ccccc2)CCC1c1ccccc1` (stereo unspecified), the TGI in experiment [1], in experiment [10], in experiment [2], in experiment [3], in experiment [4] and in experiment [5] was greater than 100 µM in each case. Besides, the TGI in experiment [11], in [8] and in experiment [9] was greater than 100 µM throughout.

Consider `O=S(=O)(O)c1ccc(N=Nc2ccccc2)cc1`, for which the TGI in experiment [1], in experiment [10], in experiment [2], in [3], in [4] and in experiment [5] was greater than 100 µM each time. Besides, the TGI in [6], in experiment [7], in experiment [12], in [8] and in experiment [9] was greater than 100 µM in each case.

For `Fc1cc(C2=Nn3c(COc4ccccc4Cl)nnc3S/C2=C\c2ccc(Cl)cc2)c(Cl)cc1Cl`, the TGI was 26.5 µM in [1]; 20.7 µM in experiment [10]; 33 µM in experiment [2]; 83.4 µM in experiment [3]; 6.23 µM in experiment [4]; greater than 100 µM in experiment [5]. Also, the TGI in experiment [6] was 32.3 µM; in experiment [7] it was greater than 100 µM; in experiment [12] it was greater than 100 µM; in experiment [9] it was 93.8 µM.

Take `COc1ccc(CCN2CCN(CCCc3ccccc3)CC2)cc1`: the TGI in [1], in [10], in experiment [2], in experiment [3], in experiment [4] and in experiment [5] was greater than 100 µM each time. Moreover, the TGI in experiment [6], in [7], in experiment [12], in experiment [8] and in [9] was greater than 100 µM throughout.

With `NCC(=O)Nc1ccccc1`, the TGI in experiment [1], in [10], in experiment [2], in experiment [4], in [5] and in [6] was greater than 100 µM throughout. Also, the TGI in [11], in experiment [7], in experiment [12], in [8] and in experiment [9] was greater than 100 µM each time.

Turning to `CN1CCC2(CC1)SSC1(CCN(C)CC1)S2`, the TGI in experiment [1], in experiment [10], in experiment [4], in experiment [6], in [11] and in experiment [7] was greater than 100 µM in each case. Further, the TGI in experiment [8] and in experiment [9] was greater than 100 µM in each case.

For `CO/C=C(/C(=O)OC)[C@@H]1C[C@@H]1c1ccc2ccccc2c1`, the TGI in experiment [1] is greater than 100 µM; in experiment [10], 49.9 µM; in experiment [2] it was 70.7 µM; in [3] it was greater than 100 µM; in experiment [4], 65.2 µM; in experiment [5] it was greater than 100 µM. For the same compound, the TGI in experiment [6] was 35.1 µM; in experiment [7] it was 44.7 µM; in experiment [12], 78.5 µM; in experiment [8], greater than 100 µM; in [9], greater than 100 µM.

Consider `CC1OC(OC2C(O)COC(OC3C(C)OC(OC4C(OC(=O)[C@]56CCC(C)(C)C[C@@H]5C5=CCC7[C@@]8(C)C[C@H](O)[C@H](OC9OC(CO)C(O)C(O)C9O)[C@@](C)(CO)[C@@H]8CC[C@@]7(C)[C@]5(C)CC6)OCC(O)C4O)C(O)C3O)C2O)C(O)C(O)C1O` (stereo partly specified), for which the TGI in experiment [1] is 38 µM; in experiment [10] it was 50.8 µM; in experiment [3], greater than 100 µM; in [4] it was 42.3 µM; in [5], 50.2 µM; in experiment [11], 39 µM. The TGI in experiment [7] turned out to be 46.9 µM; in experiment [12] it was 47.4 µM; in experiment [8], 40.1 µM; in [9] it was 28.4 µM.
